Test results published in patent publication US20210100826A1 (UNIVERSITY HOSPITAL CLEVELAND MEDICAL CENTER, priority 2017, published 2021).
Several values for one entry are separate records, joined by “and”; a condition that tells them apart may be missing. Identical values can stand only once.

Key:
[1] = UV radical generation activity; assay type: physicochemical
[2] = molecular target: T1, cloned P2X7 ATP-activated channel (human P2RX7 gene expressed in HEK293 cells) (Homo sapiens, UniProt Q99572); assay: Electrochemical patch clamp assay of P2X7 receptor activation (agonist mode, QPatch HT); assay type: cell-based; settings: for Individual Data Points (% Activation): single cells; for decrease in EC50 when compared to BzBz-ATP / decrease in EC50 when compared to native ATP: ratio of EC50 values; for EC50: whole-cell patch clamp, holding voltage −80 mV, room temperature
T1 construct: HEK293 cells were stably transfected with the appropriate ion channel cDNA encoding the pore-forming channel subunit; expressed in transfected cells
T1 sequence (Q99572 1-595): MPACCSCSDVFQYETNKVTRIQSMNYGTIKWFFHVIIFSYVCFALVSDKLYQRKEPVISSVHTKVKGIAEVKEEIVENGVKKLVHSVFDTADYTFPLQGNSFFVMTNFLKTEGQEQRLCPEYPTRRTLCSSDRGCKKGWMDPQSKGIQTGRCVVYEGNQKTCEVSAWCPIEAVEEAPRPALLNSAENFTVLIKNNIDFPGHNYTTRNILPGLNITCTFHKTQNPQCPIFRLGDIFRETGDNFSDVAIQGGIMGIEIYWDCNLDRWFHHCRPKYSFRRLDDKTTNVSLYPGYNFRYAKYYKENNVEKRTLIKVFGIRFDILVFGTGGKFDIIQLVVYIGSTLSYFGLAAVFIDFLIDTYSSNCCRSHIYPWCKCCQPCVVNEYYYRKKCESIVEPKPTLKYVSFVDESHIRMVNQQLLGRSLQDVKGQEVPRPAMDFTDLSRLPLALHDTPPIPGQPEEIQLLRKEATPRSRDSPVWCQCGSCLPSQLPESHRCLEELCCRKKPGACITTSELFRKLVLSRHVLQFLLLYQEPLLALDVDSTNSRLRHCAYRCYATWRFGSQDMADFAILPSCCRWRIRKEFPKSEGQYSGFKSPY

P2X7 = molecular target: T2, P2X7 (Homo sapiens, UniProt Q99572); settings: stated without test; read-out: EC50 as P2X7 agonist; cited from earlier work
T2 sequence (Q99572 1-595): T1 sequence (Q99572 1-595)

[3] = system: DMBA/TPA-induced skin papillomas and squamous spindle-cell carcinomas; assay: Mouse two-step DMBA/TPA skin neoplasia model, local co-treatment with BzBzATP; assay type: in vivo
Protocol: Experiments were performed to test the hypothesis that activation of the P2X7 receptor could inhibit development of epidermal neoplasia. These experiments utilized the mouse two-step DMBA/TPA skin neoplasia model, which involves tumor initiation by local treatment with DMBA, followed by tumor promotion by local treatment with TPA. Agarwal et al, “Inhibitory effect of 18beta-glycyrrhetinic acid on 12-O-tetradecanoyl phorbol-13-acetate-induced cutaneous oxidative, stress and tumor promotion in mice” Redox Rep 10:151-157 (2005); and Guo et al, “Disruption of EphA2 receptor tyrosine kinase leads to increased susceptibility to carcinogenesis in mouse skin” Cancer Res 66:7050-7058 (2006). Mice had their dorsal skin shaved, and DMBA was applied once by topical application onto the shaved dorsal skin. TPA treatment by topical application onto the shaved dorsal skin was started one week later and continued twice a week for 12 weeks.
Animals were divided into three groups: Control mice (n=15) that had their back shaved and were treated only with the vehicle; DMBA/TPA-treated mice (n=15); and DMBA/TPA-treated mice that were co-treated with BzBzATP twice a week from week −2 (i.e. two weeks prior to DMBA) (n=14). All treatments were applied locally on the shaved dorsal skin. Papilloma development was monitored weekly from week 5 to 12 after the DMBA. Endpoints were percent animals with at least one papilloma; number of papilloma per animal; and mean papilloma size (e.g., millimeters of the largest lesion dimension). None of the animals in the control group had developed papillomas.
To evaluate the effects of BzBzATP, changes in skin lesions in the DMBA/TPA and DMBA/TPA+BzBzATP groups were compared relative to the length of treatment. Since formation of papillomas and cancerous lesions was time-related (i.e., for example, a marked cut-off occurs between weeks 13-14; see, FIG. 4A), data were analyzed separately for weeks 0-12 and weeks 14-28.

[4] = week 10, DMBA/TPA+BzBzATP group
[5] = week 12, DMBA/TPA+BzBzATP group
[6] = week 28, DMBA/TPA+BzBzATP group

Molecule | Mean % P2X7 Activation ([2]; Conc 1 μM) [%] | Individual Data Points (% Activation) ([2]; Conc 1 μM) | Mean % P2X7 Activation ([2]; Conc 10 μM) [%] | Individual Data Points (% Activation) ([2]; Conc 10 μM) | Mean % P2X7 Activation ([2]; Conc 100 μM) [%] | Individual Data Points (% Activation) ([2]; Conc 100 μM) | Mean % P2X7 Activation ([2]; Conc 500 μM) [%] | Individual Data Points (% Activation) ([2]; Conc 500 μM) | decrease in EC50 when compared to BzBz-ATP [2] [%] | decrease in EC50 when compared to native ATP [2] [%] | EC50 [2] [µM] | UV radical generation activity [1] | EC50 (P2X7) [µM] | other results
Nc1ncnc2c1ncn2[C@@H]1O[C@H](COP(=O)(O)OP(=O)(O)OP(=O)(O)O)[C@@H](OC(=O)/C=C/c2ccccc2)[C@H]1O [cinnamoyl-ATP] | – | – | – | – | – | – | – | – | – | – | – | low or no UV radical generation activity | – | –
CCCCCCCCCCCC(=O)O[C@H]1[C@@H](O)[C@H](n2cnc3c(N)ncnc32)O[C@@H]1COP(=O)(O)OP(=O)(O)OP(=O)(O)O [ATP-lauroyl, lauroyl-ATP] | 8.1 | −2.1% and 26.6% and −0.3% | 29.9 | 45.1% and 18.1% and 26.4% | 42.0 | 38.7% and 64.8% and 22.6% | 96.9 | 98.3% and 124.6% and 67.7% | ~350 | ~580 | 62.4 | low or no UV radical generation activity | – | EC50 ([2]; listed as lauroyl-ATP): ~62 µM; dissolution in a solution with 0.3% DMSO: not totally dissolved
Nc1ncnc2c1ncn2[C@@H]1O[C@H](COP(=O)(O)OP(=O)(O)OP(=O)(O)O)[C@@H](OC(=O)c2cccc(Oc3ccccc3)c2)[C@H]1O [ATP-(3-phenoxy)benzoyl, 3-phenoxybenzoyl-ATP] | 12.3 | 7.0% and 45.4% and 6.7% and −9.7% | 74.7 | 36.6% and 167.5% and 39.7% and 54.9% | 186.3 | 85.6% and 284.3% and 136.9% and 238.4% | 320.8 | 346.4% and 357.0% and 209.5% and 370.2% | ~445 | ~738 | 49.1 | – | – | –
Nc1ncnc2c1ncn2[C@@H]1O[C@H](COP(=O)(O)OP(=O)(O)OP(=O)(O)O)[C@@H](OC(=O)c2ccccc2)[C@H]1O [3′-O-(Benzoyl) Adenosine-5-Triphosphate, 3′-O-(benzoyl)-adenosine-5-triphosphate] | 8.3 | 15.8% and 9.7% and −0.7% | 43.0 | 65.4% and 42.3% and 21.3% | 94.5 | 102.5% and 82.3% and 98.7% | 129.2 | 148.4% and 129.1% and 110.2% | ~910 | ~1511 | 24 | low or no UV radical generation activity | – | –

More lines, main results first:

Mean % P2X7 Activation ([2]; Conc 1 μM) [%] | Individual Data Points (% Activation) ([2]; Conc 1 μM) | Mean % P2X7 Activation ([2]; Conc 10 μM) [%] | Individual Data Points (% Activation) ([2]; Conc 10 μM) | Mean % P2X7 Activation ([2]; Conc 100 μM) [%] | Individual Data Points (% Activation) ([2]; Conc 100 μM) | Mean % P2X7 Activation ([2]; Conc 500 μM) [%] | Individual Data Points (% Activation) ([2]; Conc 500 μM) | decrease in EC50 when compared to BzBz-ATP [2] [%] | decrease in EC50 when compared to native ATP [2] [%] | EC50 [2] [µM] | Molecule | UV radical generation activity [1] | EC50 (P2X7) [µM] | other results
– | – | – | – | – | – | – | – | – | – | 363 | Nc1ncnc2c1ncn2[C@@H]1O[C@H](COP(=O)(O)OP(=O)(O)OP(=O)(O)O)[C@@H](O)[C@H]1O [NaATP, adenosine triphosphate, reference compound] | – | ~100 | Mean % P2X7 Activation ([2]; Conc 300 μM): 40.9%; Mean % P2X7 Activation ([2]; Conc 750 μM): 75.4%
0.0 | 0.1% and 0.0% and −0.2% | 6.7 | 2.2% and 14.9% and 2.9% | 16.9 | 7.2% and 29.6% and 13.8% | 100.0 | 100.0% | – | – | 218 | 2′,3′-0-(4-benzoylbenzoyl)-adenosine 5′-triphosphate [BzBzATP, reference compound] | high degree of UV radical generation activity | ~50 | P2X7 receptor activation efficacy, comparison in words [2]: slight improvement of receptor activation efficacy; Individual Data Points (% Activation) ([2]; Conc 200 μM): 34.8% and 41.8% and 39.4%; TUNEL staining of papilloma tissue ([3]; biopsy at week 10, basal/parabasal regions): intense TUNEL staining; decrease of the mean number of papillomas per animal ([3]; versus DMBA/TPA group): about 25%; decrease of the mean papilloma size ([3]; versus DMBA/TPA group): about 45%; proportion of living animals with cancerous lesions >200 mm^3 ([3]; versus DMBA/TPA group): differences did not reach statistical significance; proportion of living animals having a papilloma ([3]; week 5, DMBA/TPA+BzBzATP group): 48±12%; animals having at least one papilloma ([3]; week 6, DMBA/TPA+BzBzATP group): 53.8%; papillomas per animal (mean±SEM) [3, 4]: 1.23±0.34; papillomas per living animal (mean±SD) [3, 4]: 1.2±0.4; mean papilloma size per animal (mean±SEM) [3, 5]: 3.46±0.73 mm; mean total papillomas size per animal (mean±SD) [3, 5]: 3.4±1.0 mm; animals that developed at least one skin papilloma ([3]; week 12, DMBA/TPA+BzBzATP group, local on dorsal skin twice a week): 78%; proportion of living animals with cancerous lesions [3, 6]: 43±9%; proportion of living animals with cancerous lesions >10 mm^3 [3, 6]: 16±4%
